This passage reports IC50 results from patent publication US7553864B2, “Compounds for the treatment of inflammatory disorders and microbial diseases” (Schering Corporation, priority 2005, dated 2009).

Each structure is given as a SMILES string. Where two headings read alike, the source gives them in different places. A value given as a limit tells only on which side of the number the result lay.

For the assay, the target named is T1, ADMP (ADAMTS-4-5) (Homo sapiens, UniProt O75173).
T1 construct: purchased Calbiochem PF113
T1 sequence (O75173 213-837): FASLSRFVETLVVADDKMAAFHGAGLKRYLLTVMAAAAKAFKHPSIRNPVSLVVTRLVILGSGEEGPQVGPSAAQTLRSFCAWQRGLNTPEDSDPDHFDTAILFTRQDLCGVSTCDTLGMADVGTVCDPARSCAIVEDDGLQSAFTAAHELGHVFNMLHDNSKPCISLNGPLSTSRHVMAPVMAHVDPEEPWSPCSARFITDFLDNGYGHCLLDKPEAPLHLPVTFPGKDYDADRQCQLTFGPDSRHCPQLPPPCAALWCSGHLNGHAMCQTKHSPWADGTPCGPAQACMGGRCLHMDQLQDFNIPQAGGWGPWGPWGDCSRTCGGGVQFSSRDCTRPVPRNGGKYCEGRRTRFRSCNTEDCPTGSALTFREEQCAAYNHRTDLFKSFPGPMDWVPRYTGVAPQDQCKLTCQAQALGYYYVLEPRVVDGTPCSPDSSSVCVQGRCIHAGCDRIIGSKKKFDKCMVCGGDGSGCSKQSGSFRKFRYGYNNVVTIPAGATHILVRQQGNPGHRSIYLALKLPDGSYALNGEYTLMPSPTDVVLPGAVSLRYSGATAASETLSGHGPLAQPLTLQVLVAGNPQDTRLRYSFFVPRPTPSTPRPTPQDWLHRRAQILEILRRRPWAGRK
The assay can be described thus: ADMP activity assay (procedures of WO00/05256). Type of assay: biochemical. From the text:
The procedures of International Patent Publication WO00/05256 (published Feb. 3, 2000) were followed for detection of ADMP Activity and for measuring the IC50 of the compounds of the present invention. This was indicative of activity against a desintgrin and metallopropeinase thrombo spondin 4 and 5 (ADAMTS-4-5).
The enzyme was purchased commercially from Calbiochem (Cat# PF113) and the peptide substrate described in the patent was custom-ordered from AnaSpec.

Setting [1] is: read-out: IC50 rating (ADMP inhibitory activity).
Setting [2] is: read-out: IC50 (ADMP inhibition).

Take `N[C@@H]1CCN(C(=O)[C@H](O)[C@@H](O)C(=O)NCc2ccc(C(F)(F)F)cc2)C1` [Compound 123]: the 50% inhibitory concentration (IC50) under setting [1] lay within 1000 to 5000 nM. As to `CN(C(=O)[C@H](O)[C@@H](O)C(=O)NCc1ccc(C(F)(F)F)cc1)C1CCCCC1` [Compound 125], the 50% inhibitory concentration (IC50) under setting [1] was in the range of 250 to 1000 nM. The same measure, in the same setting: as for `O=C(NCc1ccc(C(F)(F)F)cc1)[C@H](O)[C@@H](O)C(=O)N1CCN(c2ccc(F)cc2)CC1` [Compound 126], the figure is 250 to 1000 nM. As to `CN(C)CCN(C)C(=O)[C@H](O)[C@@H](O)C(=O)NCc1ccc(C(F)(F)F)cc1` [Compound 127], under setting [1], the 50% inhibitory concentration (IC50) is more than 5000 nM. For the molecule `COc1ccc(N2CCN(C(=O)[C@H](O)[C@@H](O)C(=O)N[C@@H](C)c3ccc(Br)cc3)CC2)cc1` [Compound 130], the concentration for half-maximal inhibition (IC50) by setting is: under setting [2], 170 nM; under setting [1], less than 250 nM. Turning to `COc1ccc(N2CCN(C(=O)[C@H](O)[C@@H](O)C(=O)NCCc3cccc(Cl)c3)CC2)cc1` [Compound 131], the IC50 under setting [1] fell in the range of 250 to 1000 nM. Turning to `COc1ccc(N2CCN(C(=O)[C@H](O)[C@@H](O)C(=O)NCc3ccc(Cl)cc3)CC2)cc1` [Compound 132], the half-inhibitory concentration (IC50) under setting [1] is 250 to 1000 nM. In turn, `CC(=O)C1(c2ccccc2)CCN(C(=O)[C@H](O)[C@@H](O)C(=O)N[C@@H](C)c2ccc(Br)cc2)CC1` [Compound 133] returned a half-inhibitory concentration (IC50) of less than 250 nM.

For the molecule `COc1ccc(CNC(=O)[C@H](O)[C@@H](O)C(=O)N2CCC[C@H]2CN2CCCC2)cc1` [Compound 134], the IC50 under setting [1] lay within 250 to 1000 nM. Regarding `C[C@H](NC(=O)[C@H](O)[C@@H](O)C(=O)N1Cc2ccccc2C[C@@H]1CO)c1ccc(Br)cc1` [Compound 138], the IC50 is 190 nM under setting [2] and less than 250 nM under setting [1].

Turning to `C[C@H](NC(=O)[C@H](O)[C@@H](O)C(=O)N(C)Cc1cc(Cl)cc(Cl)c1)c1ccc(Br)cc1` [Compound 139], the 50% inhibitory concentration (IC50) under setting [1] lay within 250 to 1000 nM.

Regarding `Cc1ccc(N2CCN(C(=O)[C@H](O)[C@@H](O)C(=O)N[C@@H](C)c3ccc(Br)cc3)CC2)cc1C` [Compound 142], the IC50 under setting [1] is 250 to 1000 nM. Turning to `COc1cccc(N2CCN(C(=O)[C@H](O)[C@@H](O)C(=O)N[C@@H](C)c3ccc(Br)cc3)CC2)c1` [Compound 143], the IC50 is, setting by setting: under setting [2], 90 nM; under setting [1], less than 250 nM. Turning to `C[C@H](NC(=O)[C@H](O)[C@@H](O)C(=O)N1CCN(c2ccc(F)cc2F)CC1)c1ccc(Br)cc1` [Compound 144], the concentration for half-maximal inhibition (IC50) under setting [1] is less than 250 nM. Regarding `C[C@H](NC(=O)[C@H](O)[C@@H](O)C(=O)N1CCC(S(=O)(=O)c2ccccc2)CC1)c1ccc(Br)cc1` [Compound 148], the IC50 is, setting by setting: under setting [2], 47 nM; under setting [1], less than 250 nM.
